Tests used:
[1] = tested on: D-aminoacylase (crude enzyme) of Pythium aphanidermaatum IFO 7030; test: Crude enzyme activity for each N-Ac-D-amino acid substrate; format: biochemical; conditions: Pythium aphanidermaatum IFO 7030 crude enzyme; 20 mM substrate, 1 mM CoCl2, 50 mM phosphate buffer pH 7.0
Procedure: (§1) Auricularia auriculajudae IFO 5949, Pythium aphanidermaatum IFO 7030, and Menisporopsis novaezelandiae IFO 9179 were each inoculated into sterilized media (100 ml each) (Czapek Dox Broth for IFO 5949, YM1 medium for IFO 7030, and POTATO DEXTROSE BROTH for IFO 9179) in 500-ml Erlenmeyer flasks. The fungi were cultured on a rotary shaker at 210 rpm at 24° C. for 7 days and collected by centrifugation using a […] centrifuge with a RPR10-2 rotor at 8,000 rpm (12,500×g) for 20 min. […] Disrupted cells thus obtained were centrifuged using a […] centrifuge with a RPR20-2 rotor at 17,500 rpm (38,000×g) for 30 min at 4° C. to obtain the supernatant as the crude enzyme. […] Figures in the table denote the amount (mM) of D-amino acids produced from the corresponding N-acetyl-D-amino acids. The D-aminoacylase activity was detected in all the strains tested, producing D-amino acid from the corresponding N-acetyl-D-amino acid.

[2] = tested on: D-aminoacylase (crude enzyme) of Menisporopsis novaezelandiae IFO 9179; test: as above; format: biochemical; conditions: Menisporopsis novaezelandiae IFO 9179 crude enzyme; 20 mM substrate, 1 mM CoCl2, 50 mM phosphate buffer pH 7.0
Procedure: as §1

[3] = tested on: D-aminoacylase (crude enzyme) of Auricularia auriculajudae IFO 5949; test: as above; format: biochemical; conditions: Auricularia auriculajudae IFO 5949 crude enzyme; 20 mM substrate, 1 mM CoCl2, 50 mM phosphate buffer pH 7.0
Procedure: as §1

[4] = tested on: Hypomyces broomeanus IFO 9164 strain; test: D-amino acid production from N-acetyl-D-amino acid by washed fungal cells; format: cell-based; conditions: Hypomyces broomeanus IFO 9164 cells; 0.1% substrate, Tris-HCl pH 7.5, 30° C., 24 hours
Procedure: (§2) A platinum loopful of Hypomyces aurantius IFO 6847 strain, Hypomyces broomeanus IFO 9164 strain, Hypomyces rosellus IFO 6911 strain, Hypomyces chrysospermus IFO 6817 strain, Hypomyces sepulcralis IFO 9102 strain, Hypomyces subiculosus IFO 6892 strain, Hypomyces mycophilus ATCC 76474 or IFO 6785 strain, or Fusarium solani IFO 9974 or IFO 9975 strain was inoculated into 25 ml of YM medium (containing 0.3% yeast extract, 0.3% malt extract, 0.5% peptone, and 2.0% glucose, pH 6.0) in a 500-ml shouldered flask. The fungi were shake-cultured at 24° C. for 3 days. After culturing, a 5-ml aliquot of the culture medium was centrifuged in a refrigerated centrifuge to collect the fungal cells. The cells were washed with physiological saline solution (5 ml) and collected by centrifugation again. A reaction solution (containing 0.1% N-acetyl-D-amino acid shown in Table 1 below in Tris-HCl buffer, pH 7.5) was then added to the cells thus collected. The mixture was incubated in a 5-ml test tube with shaking at 30° C. for 24 hours.
(§3) D-Amino acid thus produced was determined by high-performance liquid chromatography (column, CROWNPAK CR (Daicel Chemical); column temperature, 26° C.; cooled in ice for only valine; mobile phase, HClO4 aqueous solution, pH 2.0; flow rate, 1 ml/min; and detection, 200 nm).

[5] = tested on: Fusarium solani IFO 9975 strain; test: as above; format: cell-based; conditions: Fusarium solani IFO 9975 cells; 0.1% substrate, Tris-HCl pH 7.5, 30° C., 24 hours
Procedure: as §2, §3

[6] = tested on: Hypomyces subiculosus IFO 6892 strain; test: as above; format: cell-based; conditions: Hypomyces subiculosus IFO 6892 cells; 0.1% substrate, Tris-HCl pH 7.5, 30° C., 24 hours
Procedure: as §2, §3

[7] = tested on: Hypomyces mycophilus ATCC 76474; test: as above; format: cell-based; conditions: Hypomyces mycophilus ATCC 76474 cells; 0.1% substrate, Tris-HCl pH 7.5, 30° C., 24 hours
Procedure: as §2, §3

[8] = tested on: Hypomyces sepulcralis IFO 9102 strain; test: as above; format: cell-based; conditions: Hypomyces sepulcralis IFO 9102 cells; 0.1% substrate, Tris-HCl pH 7.5, 30° C., 24 hours
Procedure: as §2, §3

[9] = tested on: Hypomyces chrysospermus IFO 6817 strain; test: as above; format: cell-based; conditions: Hypomyces chrysospermus IFO 6817 cells; 0.1% substrate, Tris-HCl pH 7.5, 30° C., 24 hours
Procedure: as §2, §3

Fusarium solani IFO 9974 = test: as above; format: cell-based; conditions: Fusarium solani IFO 9974 cells; 0.1% substrate, Tris-HCl pH 7.5, 30° C., 24 hours
Procedure: as §2, §3

[10] = tested on: Hypomyces rosellus IFO 6911 strain; test: as above; format: cell-based; conditions: Hypomyces rosellus IFO 6911 cells; 0.1% substrate, Tris-HCl pH 7.5, 30° C., 24 hours
Procedure: as §2, §3

[11] = tested on: Hypomyces aurantius IFO 6847 strain; test: as above; format: cell-based; conditions: Hypomyces aurantius IFO 6847 cells; 0.1% substrate, Tris-HCl pH 7.5, 30° C., 24 hours
Procedure: as §2, §3

[12] = tested on: Hypomyces mycophilus IFO 6785 strain; test: as above; format: cell-based; conditions: Hypomyces mycophilus IFO 6785 cells; 0.1% substrate, Tris-HCl pH 7.5, 30° C., 24 hours
Procedure: as §2, §3

D-aminoacylase = test: Substrate specificity of purified D-aminoacylase (TNBS method); format: biochemical, Hypomyces mycophilus IFO 6785
Procedure: The enzyme activity was assayed by determining the amount of amino acid produced using the TNBS method and the HPLC method. In the TMBS method, 100 mM Na2B4O7 (0.5 ml) was added to a sample solution containing amino acid (0.5 ml), 20 μl of 110 mM TNBS (trinitrobenzenesulfonic acid) was then added, and the resulting mixture was quickly stirred. After 5 min, 100 mM NaH2PO4 containing 1.5 mM Na2SO3 (2 ml) was added to the reaction mixture to terminate the color reaction, and the absorbance at 420 nm was measured. HPLC was performed by subjecting a sample solution containing amino acid to high-performance liquid chromatography using an ODS column (column, Wakosil II 5C18 (4.6 dia.×250 mm) (Wako Pure Chemical); eluent, CH3CN/50 mM KH2PO4. H3PO4 (pH 2.5)=2:8; detection, A280 nm; and flow rate, 1.0 ml/min). The retention times were 3.5 min for D-tryptophan and 9.8 min for N-acetyl-D-tryptophan. Using D-tryptophan as the assay standard, one unit (or U) of the enzyme was defined as the amount of the enzyme required to produce 1 μmol of D-tryptophan at 30° C. for 1 min.
Substrate specificity of the enzyme was expressed as the percentage of the specific activity compared with that for N-acetyl-D-methionine taken as 100%. N-chloroacetyl-D-phenylalanine, N-acetyl-D-valine, N-acetyl-D-phenylalanine, N-acetyl-D-tryptophan, N-acetyl-D-leucine, N-acetyl-L-valine, N-acetyl-L-phenylalanine, N-acetyl-L-tryptophan, and N-acetyl-L-leucine substrates were used for the comparison. The enzyme reaction was performed in 50 mM Tris-HCl (pH 7.5) containing 1 µl of the enzyme solution and 20 mM of each substrate (total volume 1.0 ml) at 30° C. for 20 min, and terminated by adding 0.5 ml of a TCA reaction terminating solution according to Tsai et al. (consisting of 110 mM trichloroacetic acid, 220 mM sodium acetate, and 330 mM acetic acid). The enzyme activity was assayed by the TNBS method as described in Example 4(2).

- amount of D-amino acids produced from the corresponding N-acetyl-D-amino acids [1]: 0.90 mM
- amount of D-amino acids produced from the corresponding N-acetyl-D-amino acids [2]: 0.89 mM
- amount of D-amino acids produced from the corresponding N-acetyl-D-amino acids [3]: 2.45 mM
- percentage of the specific activity compared with that for N-acetyl-D-methionine taken as 100%, D-enantiomer (D-aminoacylase; 20 mM substrate, 50 mM Tris-HCl pH 7.5, 30° C., 20 min): 100%
- activity of the enzyme for the substrate (in words) (D-aminoacylase; summary of Table 5): very active
SMILES: CSCC[C@@H](NC(C)=O)C(=O)O [N-acetyl-D-methionine]
- D-amino acid produced from N-acetyl-D-amino acid [4]: 0.01 mg/mL
- D-amino acid produced from N-acetyl-D-amino acid [5]: 0.02 mg/mL
- D-amino acid produced from N-acetyl-D-amino acid [6]: 0.03 mg/mL
- D-amino acid produced from N-acetyl-D-amino acid [7]: 0.10 mg/mL
- D-amino acid produced from N-acetyl-D-amino acid [8]: 0.24 mg/mL
- D-amino acid produced from N-acetyl-D-amino acid [9]: 0.12 mg/mL
- D-amino acid produced from N-acetyl-D-amino acid (Fusarium solani IFO 9974): 0.04 mg/mL
- D-amino acid produced from N-acetyl-D-amino acid [10]: 0.14 mg/mL
- D-amino acid produced from N-acetyl-D-amino acid [11]: 0.02 mg/mL
- D-amino acid produced from N-acetyl-D-amino acid [12]: 0.71 mg/mL

— patent publication US6905861B2, “D-aminoacylases, method for producing the same, and method for producing D-amino acids using the same” (Daicel Chemical Industries, Ltd., priority 1998, dated 2005)
